Legend:
[1] = Parallel artificial membrane permeability assay (PAMPA); assay type: in vitro ADME; details: 4% lecithin in dodecane; for permeability Pe: 1x PBS, 500 μM donor, RT, 18 h, UV absorbance
Procedure: A parallel artificial membrane permeability assay (PAMPA) Kit (BioAssay Systems, Hayward, CA) was used to measure the membrane permeability of SK-129 according to the manufacturer’s protocol. Briefly, a 4% lecithin solution (LS) was prepared in dodecane and solubilized with constant sonication for 20 min. Then, 5 µL of LS was placed on the donor plate membranes. A 300 μL 1x PBS buffer was applied to the acceptor plate. The solutions of SK-129 and various permeability controls (Highly soluble, medium soluble and low soluble) molecules were added to donor plates (200 μL and 500 μM). The donor plate was placed in the acceptor plate and incubated at RT for 18 h. Then the solutions were removed from the acceptor plate and placed in a clear-bottom 96-well plate (Corning Inc., Corning, NY) and absorbance was recorded at 360 nm for SK-129 and 275 nm for standards. The permeability was calculated using Eq. 2:2 Pe=C×−ln1−ODA/ODEcm/s Where the permeability rate C is 7.72 × 10^−6, ODA is the absorbance of acceptor solution and ODE is absorbance of equilibrium standard.

[2] = molecular target: T1, αS seeds extracted from PD brain (Homo sapiens, UniProt P37840); test: PMCA assay with αS seeds from PD brain (PK digestion, western blot); assay type: biochemical; details: SK-129 equimolar
T1 construct: Synuclein Residues (1-140); made in house; host or cells: Monomer: Escherichia coli BL21(DE3), WT αS in pET11 (Addgene); Seeds: fixed human substantia nigra tissue from post mortem PD brain
Text: Fixed brain tissues were obtained from the Carroll A. Campbell, Jr. Neuropathology Lab (CCNL) brain bank at the Medical University of South Carolina (Dr. Steve Carroll, Director) and from Dr. Greg Gerhardt’s laboratory at the University of Kentucky. The seeds were extracted from the post mortem brain by following a published protocol with a slight modification. The brain was sliced in 1 cm slabs as soon as possible to avoid long post mortem intervals and fixed free-floating in a solution of 4% paraformaldehyde in 1x PBS buffer (4% paraformaldehyde in 1x PBS buffer). […] Following fixation, tissue was transferred to a cryoprotectant solution (30% glycerol, 30% ethylene glycol, and 40% 1x PBS buffer, v,v) and kept at −20 °C until dissection. A total of Sixteen brain regions were dissected after fixation and processed for neuropathological diagnosis of PD according to a published protocol. A diagnosis was conducted, which included staining with H & E, Bielshowsky’s silver stain, as well as p-Tau, Amyloid-β, and αS immunohistochemistry (See main manuscript Fig. 4b, c). From the total tissue amount, ~100 mg of fixed substantia nigra tissue was homogenized using a Bio-Gen PRO200 Tissue Homogenizer (PRO Scientific Inc., Oxford, CT) in 1x PBS buffer (10%, w/v). The homogenate was centrifuged at a rate of 19,000 × g for 12 min. […]

[3] = molecular target: T2, αS1 seed-catalyzed aggregation (Homo sapiens, UniProt P37840, DEL6-12); test: Seed-catalyzed ThT aggregation assay (10% WT αS seeds), αS1; assay type: biochemical; details: αS1, equimolar ratio
T2 construct: made in house; host or cells: Escherichia coli BL21(DE3)
Procedure: Seed-catalyzed αS aggregation assay was performed similarly to a previously described protocol. Briefly, 100 μM monomeric WT αS solution (200 μL, in 1x PBS buffer) was placed into a ThermoMixer (Eppendorf, Hamberg, Germany) and shook for five days at a rate of […] and 37 °C. The solution was sonicated for 10 min and used as αS seeds. The seed-catalyzed aggregation of WT αS/ αS variants was performed by adding αS seeds (10% seeds, αS in monomeric concentration, v/v) into 140 μL of fresh 100 μM WT αS/ αS variants solution and aggregation was started with constant shaking at a rate of […] and 37 °C. The aggregation of proteins was monitored at the indicated times (See the main manuscript) using the above-mentioned method.
The ThT aggregation assay for each protein (WT αS and αS variants) in the presence of SK-129 was carried out the above-mentioned method. SK-129 (from 10 mM stock solution in DMSO) was added at an equimolar ratio (1% DMSO, v/v) to the proteins at the start of the aggregation experiment. The concentration of DMSO was kept constant (1%, v/v) in protein (WT αS and αS variants), control, and protein+molecule solutions. The kinetic profiles of protein aggregation were processed using OriginPro software (Version 9.1). Kinetic curves were fit using a built-in sigmoidal fit in the OriginLab.

membrane permeation [1]: efficiently permeate cell membranes | permeability Pe ([1]; trial 1): 4.75 ×10⁻⁶ cm/s | permeability Pe ([1]; trial 2): 4.45 ×10⁻⁶ cm/s | permeability Pe ([1]; trial 3): 4.64 ×10⁻⁶ cm/s | permeability Pe ([1]; trial 4): 4.65 ×10⁻⁶ cm/s | permeability Pe ([1]; trial 5): 4.64 ×10⁻⁶ cm/s | permeability Pe ([1]; trial 6): 4.36 ×10⁻⁶ cm/s | permeability Pe ([1]; trial 7): 4.67 ×10⁻⁶ cm/s | permeability Pe ([1]; trial 8): 4.79 ×10⁻⁶ cm/s | state of PMCA sample (cycle 5) of PD brain extract [2]: neither aggregated nor PK resistant | effect on seed-catalyzed aggregation [3]: wholly suppressed
Structure (SMILES): COC(=O)c1cc(OCC(=O)O)c2cccc(NC(=O)c3cc(OC(C)C)c4cccc(NC(=O)c5cc(OCC(=O)O)c6cccc(NC(=O)c7cc(OC(C)C)c8cccc([N+](=O)[O-])c8n7)c6n5)c4n3)c2n1 [SK-129]

Reference: paper PMC9046208, “Foldamers reveal and validate therapeutic targets associated with toxic α-synuclein self-assembly” (Nature Communications, 2022)
